Laboratory results: US20080051378A1, “Combinations Comprising Antimuscarinic Agents and Corticosteroids” (priority 2004, published 2008)

System: ovoalbumin-sensitized guinea-pig isolated tracheal rings
Test: Inhibition of the antigen (ovoalbumin)-induced contraction in ovoalbumin-sensitized guinea-pig isolated tracheal rings
Settings: for CONTRACTILE RESPONSE TO OVOALBUMIN (in mg) (mean ± sem): vehicle 886 ± 108 mg
Protocol: Male Dunkin-Hartley guinea-pigs (weighing 380-420 g) from Harlan Ibérica (St. Feliu de Codines, Spain) are used. They are housed, with free access to food and water, in rooms kept at 22±2° C. under a 12 hours light-dark cycle until the start of the experiment.
The animals are sensitised by means of two sessions of aerosolization with a solution of 5 mg/ml of ovoalbumin on days zero and 7 of the study. The aerosolization procedure consists of two 30-s nebulisations (Efbe air brush apparatus) with an interval of 5 minutes with animals maintained in a plexiglass box for 10 minutes since the beginning of the procedure.
Between days 14 to 20 from the beginning of the experiment the animals are euthanised and the tracheal tissue is removed. A single tracheal ring is excised and suspended in an organ bath containing Krebs solution. Once attached to a force isometric transducer, it is submitted to a basal resting tension of 1 g, equilibrated with a mixture a 5% CO2 in O2 and maintained at 37° C.
The preparations are allowed to equilibrate for a period of not less than 60 minutes and then the vehicle or the compound(s) to be tested are added to the bath. The corticosteroids (if present) are added first, and, after an incubation period of 45 minutes, the M3 antagonist are subsequently added allowing the system to stand for another 15 minutes. At this moment ovoalbumin is added (at a final concentration in the bath of 10 μg/ml) to elicit the contractile response which is measured immediately.
The contractile responses measured with a force isometric transducer are expressed in mg.

[1] = each compound 10 μM in organ bath, corticosteroid added 45 min before, M3 antagonist 15 min before ovoalbumin 10 μg/ml

| Compound | CONTRACTILE RESPONSE TO OVOALBUMIN (in mg) (mean ± sem) [1] | % INHIBITION OF THE CONTRACTILE RESPONSE (each compound 10 μM in organ bath, corticosteroid added 45 min before, M3 antagonist 15 min before ovoalbumin 10 μg/ml, versus vehicle) | inhibition of the contractile response, comparison in words (text summary of Table 1 and FIG. 1, 10 μM each) | inhibition at 10 µM (Cavia porcellus, each compound 10 μM in organ bath, corticosteroid added 45 min before, M3 antagonist 15 min before ovoalbumin 10 μg/ml, versus vehicle, read-out: % INHIBITION OF THE CONTRACTILE RESPONSE) |
| --- | --- | --- | --- | --- |
| C[C@H]1C[C@H]2[C@@H]3CCC4=CC(=O)C=C[C@]4(C)[C@@]3(Cl)[C@@H](O)C[C@]2(C)[C@@]1(O)C(=O)CO [BECLOMETHASONE, beclomethasone] | 778 ± 83 mg | 12% | smaller effect | – |
| CCCC1O[C@@H]2C[C@H]3[C@@H]4CCC5=CC(=O)C=C[C@]5(C)[C@H]4[C@@H](O)C[C@]3(C)[C@]2(C(=O)CO)O1 (some centres unmarked) [BUDESONIDE, budesonide] | 435 ± 68 mg | – | – | 51% |
